Source: US20060079453A1, “Hla binding peptides and their uses” (priority 2002, published 2006)
Where two headings read alike, the source gives them in different places. No end group written: not given here.

Experiments:
Assay in all cases: biochemical
Format in all cases: binding
HLA-A*0202 = HLA-A*0202 (Homo sapiens, UniProt P04439, D140Y/D185E/D98H/E176V/E277Q/G131W/G231S/I119L/I121R/I166T/I218V/L180W/L300P/L318F/N151K/N90K/P208A/P217A/Q67R/Q86G/Q94H/R138H/R169H/T345S)
HLA-A*0203 = HLA-A*0203 (Homo sapiens, UniProt P04439, A173T/D140Y/D185E/D98H/E277Q/G131W/G231S/I119V/I121R/I166T/I218V/L180W/L300P/L318F/N151K/N90K/P208A/P217A/Q86G/Q94H/R138H/R169H/T345S)
HLA-A*6802 = HLA-A*6802 (Homo sapiens, UniProt P04439, A269V/D140Y/D185E/E176V/E277Q/E87N/F33Y/G231S/I121R/I166T/I218V/L180W/L300P/L318F/N151K/P208A/P217A/Q86R/R138H/R169H/S129P/T345S/V36M)
HLA-A*0201 = HLA-A*0201 (Homo sapiens, UniProt P04439, D140Y/D185E/D98H/E176V/E277Q/G131W/G231S/I119V/I121R/I166T/I218V/L300P/L318F/N151K/N90K/P208A/P217A/Q86G/Q94H/R138H/R169H/T345S)
HLA-A*0206 = HLA-A*0206 (Homo sapiens, UniProt P04439, D140Y/D185E/D98H/E176V/E277Q/F33Y/G131W/G231S/I119V/I121R/I166T/I218V/L300P/L318F/N151K/N90K/P208A/P217A/Q86G/Q94H/R138H/R169H/T345S)
[1] = A*0202 binding affinity (expressed as an IC50)
[2] = A*0203 binding affinity (expressed as an IC50)
[3] = A*6802 binding affinity (expressed as an IC50)
[4] = A*0201 binding affinity (expressed as an IC50)
[5] = A*0206 binding affinity (expressed as an IC50)

| Compound | IC50 (HLA-A*0202; [1]) [nM] | IC50 (HLA-A*0203; [2]) [nM] | IC50 (HLA-A*6802; [3]) [nM] | IC50 (HLA-A*0201; [4]) [nM] | IC50 (HLA-A*0206; [5]) [nM] | also measured |
| --- | --- | --- | --- | --- | --- | --- |
| VLAEAMATA | 1.4 | 0.73 | 33 | 6.7 | 8.6 |  |
| KISAVVGIL | 42 | 60 | 4950 | 6240 | 1750 |  |
| LQLPPLERLTV |  |  |  |  |  | IC50 (HLA-A*0202): 4540 nM; IC50 (HLA-A*0203): 6270 nM; IC50 (HLA-A*6802): > 61100 nM; IC50 (HLA-A*0201): 159 nM; IC50 (HLA-A*0206): 52 nM |
| GLGAVSRDL |  |  |  |  |  | IC50 (HLA-A*0202): 436 nM; IC50 (HLA-A*0203): 1730 nM; IC50 (HLA-A*6802): > 16700 nM; IC50 (HLA-A*0201): 18700 nM; IC50 (HLA-A*0206): > 10400 nM |
| ILAEAMSQA |  |  |  |  |  | IC50 (HLA-A*0202): 1 nM; IC50 (HLA-A*0203): 1.1 nM; IC50 (HLA-A*6802): 253 nM; IC50 (HLA-A*0201): 29 nM; IC50 (HLA-A*0206): 8.6 nM |
| WLNYTPGPGT |  |  |  |  |  | IC50 (HLA-A*0202): 124 nM; IC50 (HLA-A*0203): 231 nM; IC50 (HLA-A*6802): 11800 nM; IC50 (HLA-A*0201): 547 nM; IC50 (HLA-A*0206): > 31600 nM |
| VLFLQMMNV | 1.8 | 2.7 | 323 | 31 | 9.5 |  |
| TLGPGPGHL | 35 | 66 | 27900 | 15000 | 12100 |  |
| FLPSGPGPGV | 1.2 | 3.4 | 40 | 21 | 64 |  |
| ILWQVDRM |  |  |  |  |  | IC50 (HLA-A*0202): 67 nM; IC50 (HLA-A*0203): 3000 nM; IC50 (HLA-A*6802): > 19500 nM; IC50 (HLA-A*0201): 1750 nM; IC50 (HLA-A*0206): 11300 nM |
| QLVFGPGPGEV |  | 50 | 447 | 2940 | 4070 |  |
| LLWQPIPV | 2440 | 9.9 | 32900 | 137 | 4250 |  |
| ATYGIIVPV | 2 | 2.8 | 21 | 3.2 | 5 |  |
| MTSNPPVPV | 29 | 0.8 | 1.1 | 22 | 81 |  |
| IISAVVGIV | 15 | 20 | 390 | 712 | 958 |  |
| LIFHFFLFLL | 1470 | 3170 | 460 | 200 | 1560 |  |
| CC(C)C[C@H](NC(=O)[C@H](CCCNC(=N)N)NC(=O)[C@H](CC(C)C)NC(=O)[C@@H](NC(=O)[C@H](C)NC(=O)[C@@H](NC(=O)CNC(=O)[C@H](CC(=O)O)NC(=O)[C@H](CC(C)C)NC(=O)[C@@H](N)CC(C)C)[C@@H](C)O)[C@@H](C)O)C(=O)O | 1.9 | 201 | > 421000 | 180 | 841 |  |
| SLLNGPGPGV | 3.8 | 14 | 45 | 65 | 63 |  |
| FLFLLYILFL |  | 2010 | 8250 | 2830 | 2110 |  |
| FAPGFFPYL | 0.85 | 44 | 7.6 | 48 | 2.3 |  |
| MMIMIKFMGV | 19 | 25 | 39 | 123 | 109 |  |

| Compound | IC50 (HLA-A*0202; [1]) [nM] | IC50 (HLA-A*0203; [2]) [nM] | IC50 (HLA-A*6802; [3]) [nM] | IC50 (HLA-A*0201; [4]) [nM] | IC50 (HLA-A*0206; [5]) [nM] | also measured |
| --- | --- | --- | --- | --- | --- | --- |
| FLVFLVFSNV |  |  | 5390 | 269 | 232 |  |
| LTFGWCFKV |  |  |  |  |  | IC50 (HLA-A*0202): 33 nM; IC50 (HLA-A*0203): 1170 nM; IC50 (HLA-A*6802): 9.7 nM; IC50 (HLA-A*0201): 15 nM; IC50 (HLA-A*0206): 187 nM |
| IISAVVGFL | 1 | 4.8 | 77 | 747 | 234 |  |
| FLPGPGPGSV | 18 | 4 | 332 | 98 | 665 |  |
| GLIYSKKRQEV |  |  |  |  |  | IC50 (HLA-A*0202): 57 nM; IC50 (HLA-A*0203): 152 nM; IC50 (HLA-A*6802): > 14300 nM; IC50 (HLA-A*0201): 8970 nM; IC50 (HLA-A*0206): > 8560 nM |
| RLDILDLWV |  |  |  |  |  | IC50 (HLA-A*0203): 1640 nM; IC50 (HLA-A*6802): > 17800 nM; IC50 (HLA-A*0201): 43 nM; IC50 (HLA-A*0206): 2640 nM |
| CC[C@H](C)[C@H](NC(=O)[C@H](C)NC(=O)[C@H](CO)NC(=O)[C@@H](NC(=O)[C@H](Cc1ccccc1)NC(=O)[C@H](CCC(N)=O)NC(=O)[C@H](C)NC(=O)[C@H](CC(C)C)NC(=O)[C@H](CC(C)C)NC(=O)[C@@H](N)Cc1ccccc1)[C@@H](C)O)C(=O)O | 1.9 | 4.8 |  | 65 | 148 |  |
| AMAKAAAAT |  | 84 | > 26700 | 15100 | 37000 |  |
| LLYSKKRQEIL |  |  |  |  |  | IC50 (HLA-A*0203): 1570 nM; IC50 (HLA-A*6802): > 14300 nM; IC50 (HLA-A*0201): > 38200 nM; IC50 (HLA-A*0206): > 8560 nM |
| FLKEKGGLEGV |  |  |  |  |  | IC50 (HLA-A*0202): 3.5 nM; IC50 (HLA-A*0203): 6.8 nM; IC50 (HLA-A*0201): 322 nM; IC50 (HLA-A*0206): 739 nM |
| KLTPLCVTM | 3.6 |  | 6290 | 340 | 197 |  |
| QLVFGGPGPGV | 96 |  | 1320 | 2150 | 3210 |  |
| AXAKAAAAL |  |  |  |  |  | IC50 (HLA-A*0203; read-out: A*0203 binding affinity (expressed as an IC50)): 3300 nM; IC50 (HLA-A*6802; read-out: A*6802 binding affinity (expressed as an IC50)): > 11400 nM; IC50 (HLA-A*0201; read-out: A*0201 binding affinity (expressed as an IC50)): > 50000 nM; IC50 (HLA-A*0206; read-out: A*0206 binding affinity (expressed as an IC50)): 37000 nM |
| CC[C@H](C)[C@H](NC(=O)[C@H](CC(=O)O)NC(=O)[C@H](CCC(N)=O)NC(=O)[C@H](CC(C)C)NC(=O)[C@@H](N)[C@@H](C)O)C(=O)N[C@H](C(=O)N[C@@H](CC(C)C)C(=O)N[C@@H](Cc1c[nH]cn1)C(=O)N[C@@H](CC(C)C)C(=O)O)C(C)C | 4.4 | 46 |  | 22 | 781 |  |
| NQMIFVSSI | 21 | 3.6 |  | 250 | 14 |  |
| YQDPQNYEL | 18 |  | 167000 | 79 | 52 |  |
| VTAKELKFV | 2690 | 40 |  | 7140 | 137 |  |
| MTSDPPIPV |  |  |  |  |  | IC50 (HLA-A*0202): 13 nM; IC50 (HLA-A*0203): 0.45 nM; IC50 (HLA-A*0201): 107 nM; IC50 (HLA-A*0206): 587 nM |
| KLGSLQYL |  |  |  |  |  | IC50 (HLA-A*0202): 14 nM; IC50 (HLA-A*6802): > 19500 nM; IC50 (HLA-A*0201): 1860 nM; IC50 (HLA-A*0206): 9010 nM |
| IVYSAHDTTV | 91 |  | 737 | 7640 | 356 |  |
